Assay: gradient 5% acetonitrile 3 min, to 50% in 2 min, to 85% in 15 min, held 3 min, 100 µL/min
Conditions: column: Zorbax Extend-C18 2.1 x 50 mm; eluents: water / acetonitrile, 0.1% formic acid
How it was run: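 Standards, all pure, were combined into mixtures of ~100 molecules and run at 100 μL/min on a Zorbax Extend-C18 column (2.1 × 50 mm, 1.8 μm) with water and acetonitrile, each containing 0.1% formic acid. A coupled quadrupole time-of-flight mass spectrometer operated in positive and negative ionization mode. Retention time values come from computationally picked adduct peaks, each inspected manually.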

SMILES | RP-LC retention time
O=C(Nc1ccccc1)N1CCC2(CC1)CC(N1CCOCC1)CCO2 (stereo not given) | 583 s
O=C(NCC(=O)N1CCCc2ccccc21)c1ccccc1Br | 822 s
Cc1cccc(N(C)C(=O)Cn2c(N3CCc4ccccc4C3)nc(C)cc2=O)c1 | 850 s
O=C(Cn1c(-c2ccc(F)cc2)nc2ccccc21)N1CCCCC1 | 675 s
Cc1oc(C2CCN(S(=O)(=O)c3ccccc3F)CC2)nc1C(=O)N(C)C | 781 s
Cc1nc(C)c(C(=O)N2CCCC(c3nnc(-c4ccc5c(c4)OCO5)o3)C2)s1 (stereo not given) | 669 s
COc1cccc(CNC(=O)N2c3ccccc3CC2c2nc(C3CC3)no2)c1 (stereo not given) | 775 s
Cc1c(CC(=O)NC(C)C)c(=O)n2nc(-c3ccccc3)nc2n1C | 673 s
COc1ccc(Cl)cc1C(=O)NCCc1c[nH]c2ccc(C)cc12 | 657 s
CCOc1ccccc1N1CCN(C(=O)CSc2nccnc2Oc2ccccc2C)CC1 | 1120 s
CC(=O)N1CCc2cc(N3CC(C(=O)Nc4cc(C)ccc4C)CC3=O)ccc21 (stereo not given) | 717 s
CCc1noc(NC(C)=O)c1-c1ccc(C)c(S(=O)(=O)Nc2cc(Cl)ccc2OC)c1 | 872 s
O=C(Nc1ccc2c(c1)OCO2)Nc1ccc2nc3n(c(=O)c2c1)CCCC3 | 651 s
CC(C)NC(=O)N1Cc2ccccc2OC2(CCN(C)CC2)C1 | 591 s
CCCc1noc(-c2cccn3c(CC(=O)N4CCSCC4)nnc23)n1 | 653 s
O=C(NCCc1ccccc1)C1CC(=O)N(CCc2c[nH]c3ccc(F)cc23)C1 (stereo not given) | 867 s
COc1ccccc1N1CCN(c2cc(SCC(=O)Nc3ccc(F)c(Cl)c3)ncn2)CC1 | 1090 s
COc1ccc(-c2nc3c4ccccc4ncn3n2)cc1 | 924 s
Cn1cc(S(=O)(=O)N2CCCCC2)cc1C(=O)Nc1ccccc1 | 960 s
COc1ccc(-c2nnc(COc3ccc(NC(=O)c4ccoc4)cc3)o2)cc1 | 738 s
COCCCNC(=O)CN1CC2=C(C1=O)C(c1ccccc1Cl)NC(=O)N2C (stereo not given) | 570 s
NS(=O)(=O)c1ccc2nc(NC(=O)C3=COCCO3)sc2c1 | 613 s
O=S(=O)(Nc1ccc(F)cc1)c1cccnc1N1CCOCC1 | 801 s

SMILES | RP-LC retention time
CCC1CN(C(=O)N2CCC(C(=O)NCCN3CCCCCC3)CC2)c2ccccc2O1 (stereo not given) | 660 s
COc1cccc(CNC(=O)c2ccc3c(c2)nc2n3CCN(C3CCCCC3)C2=O)c1 | 774 s
Cc1cccc(Oc2nccnc2N2CCC(C(=O)NC(C)c3ccc(C)cc3C)CC2)c1 (stereo not given) | 1150 s
O=C(NCC(F)(F)F)C(=O)NCC1(c2cccs2)CCCCC1 | 804 s
O=C1COc2ccc(Cl)cc2N1Cc1nc(-c2cccc(-c3csc(C4CC4)n3)c2)no1 | 1300 s
COc1ccc(C(=O)N2c3nc(-c4ccccc4)nn3C3(CCCCC3)[C@@H]3CCCC[C@@H]32)cc1OC | 1420 s
O=C(NC1CCN(Cc2ccccc2)CC1)c1cn2cc(Cl)ccc2n1 | 610 s
O=C(Nc1ccccc1)C1(CCO)CCN(Cc2ccccc2)C1 (stereo not given) | 624 s
CCOC(=O)c1cccc(NC(=O)C2CCCN(c3ccc(=O)n(-c4cccc(Cl)c4)n3)C2)c1 (stereo not given) | 994 s
CSc1ncccc1C(=O)N1CCCn2nc(-c3cccc(Cl)c3)cc2C1 | 827 s
Cc1ccc(NC(=O)c2ccccc2[N+](=O)[O-])c(C(=O)c2ccccc2)c1 | 955 s
CCc1nnc2ccc(S(=O)(=O)Nc3ccc(F)cc3)cn12 | 707 s
COc1cccc(-c2ccc(=O)n(Cc3nc(-c4ccccc4Cl)no3)n2)c1 | 931 s
Cc1nn2c(C)c(C(=O)OC(C)C)nnc2c1-c1ccc(F)cc1 | 1060 s
Cc1ccc2c(=O)c3c([nH]c2c1C)CCN(CC(=O)Nc1ccc(F)cc1F)C3 | 615 s
O=C(CCS(=O)(=O)c1ccccc1)Nc1cc(-c2ccco2)nn1CCO | 643 s
O=C(c1cnn2cc(Br)cnc12)N1CCCC1c1cccc(F)c1 (stereo not given) | 904 s
Cc1cccc(N2CCN(C(=O)C3CCN(S(=O)(=O)c4cn(C)c(C)n4)CC3)CC2C)c1 (stereo not given) | 667 s
Cc1cc(C)cc(Oc2nccn3c(=O)n(CC(=O)Nc4ccccc4C)nc23)c1 | 838 s
O=C(O)C1CCN(c2nc3ccc(-c4ccccc4)nc3s2)CC1 | 868 s
Cc1[nH]nc(-c2cc(S(=O)(=O)NCCc3ccccc3)c(C)s2)c1C | 886 s
O=S(=O)(Cc1ccccc1Cl)NCC1CCN(Cc2ccsc2)CC1 | 588 s
